In patent US5908781A, “Monoclonal antibodies to ceftiofur” (The United States of America as represented by the …, priority 1996, dated 1999):

Legend:
[1] = target: Cef-68; experiment: Competitive indirect ELISA (ciELISA), competitor inhibition of MAb Cef-68 binding; set-up: species or system Balb/c mice; conditions: for IC50 (ppb) Values for Antibodies, Cef-68: MAb Cef-68, final dilution 1:20, BSA-S-GMBS-Cef-coated plates, value ± standard deviation, average of 3-6 determinations; for binding with MAb Cef-68 (in words): ciELISA cross-reactivity
Protocol: (§1) The supernatant culture fluid from the cloned hybridomas may also be screened to select for those producing antibodies having a high affinity for ceftiofur. Affinity may be measured using a variety of well known techniques, such as ELISA, RIA or equilibrium dialysis using labeled ceftiofur. […] In accordance with this embodiment, the antibody containing supernatant is added to a ceftiofur or ceftiofur-complex coated substrate such as the wells of a microtiter plate, together with a range of concentrations of free ceftiofur as a competitor. Following incubation and washing, bound antibody in the wells is determined in the same manner as the db-ELISA. Percent inhibition may be calculated as (1-B/Bo)×100, where B is the optical density (OD) of a well with a competitor and Bo is the mean OD of the wells without competitor (control). […] However, for greater accuracy, the affinity may be alternatively measured at 50% inhibition (IC50).
(§2) Antibodies and ELISA Methods. A standard indirect ELISA method in which the hapten conjugate is immobilized on 96-well microtiter plates was used to evaluate the response of Balb/c mice towards the immunogen KLH-SMCC-desCef. The microtiter immunoplates (PGC Scientifics, Gaithersburg, Md.) were washed three times with a solution of 0.05% (v/v) polyoxyethylene sorbitan monolaurate (TWEEN 20)(Sigma Chemical Co., St. Louis, Mo.) in deionized water (TWEEN 20-water) and then coated with 100 μL of the coating antigen, BSA-SMCC-desCef (100 ng/well) in deionized water. The plates were dried overnight at 37° C. The plates were then washed three times with PBS-9 (0.01M sodium phosphate, 0.15M sodium chloride, pH 9) and the unbound active sites were blocked with 200 μL of 3% (w/v) nonfat milk in PBS-9 for 30 min at 37° C. The plates were washed three times with PBS-9, and 100 μL of supernatant containing the antibody was added to the microtiter plates, which were subsequently incubated for 60 min at 37° C. The unbound antibody was removed by washing the plate five times with TWEEN 20-water. Next, 50 μL of goat anti-mouse IgG-peroxidase conjugate (1:500 dilution)(Sigma Chemical Co., St. Louis, Mo.) was added, followed by incubation of the plates at 37° C. for 60 min. Finally, the plates were washed five times with TWEEN 20-water, 100 μL of K-blue substrate (Elisa Technologies, Lexington, Ky.) was added, and the absorbance was read at 655 nm.
(§3) For the ciELISA, the plates were prepared as above except that BSA-S-GMBS-Cef was used as the plate-coating antigen. Competitors were prepared in assay buffer (0.1M Tris, 0.15M sodium chloride, 0.01% (w/v) nonfat milk in deionized water, pH 7.75), added to the wells, and diluted in a 2-fold fashion immediately prior to addition of the anticeftiofur monoclonal antibody (Mab). Tissue culture media containing the anticeftiofur MAbs were used at a final dilution of 1:20 and 1:100 (for MAbs Cef-68 and Cef-116, respectively). The following competitors were used in a cross-reactivity study: ceftiofur sodium, cefteram sodium (Hoffmann-La Roche Inc., Nutley, N.J.), ceftriaxone sodium (Hoffmann-La Roche), cefuroxime sodium (Glaxo Man. Serv. Ltd., Barnard Castle, County Durham, England), ceftazidime pentahydrate (Glaxo), amoxicillin, ampicillin sodium, cefaclor, cefadroxil, cefamandole sodium, cefazolin sodium, cefoperazone sodium, cefotaxime sodium, cefoxitin sodium, cefsulodin sodium, cephalothin sodium, cephapirin sodium, cephradine, cloxacillin sodium, and penicillin-G sodium. Except where indicated otherwise, competitors were obtained from Sigma Chemical Co. (St. Louis, Mo.). The competitors were diluted to afford a solution containing a concentration range of 100-1000 ng/well in column 2 of the 96-well microtiter plates. Each competitor was serially diluted across the plate with columns 11 and 12 serving as controls (i.e. no competitor).

[2] = target: Cef-116; experiment: Competitive indirect ELISA (ciELISA), competitor inhibition of MAb Cef-116 binding; set-up: species or system Balb/c mice; conditions: for IC50 (ppb) Values for Antibodies, Cef-116: MAb Cef-116, final dilution 1:100, BSA-S-GMBS-Cef-coated plates, value ± standard deviation, average of 3-6 determinations; for IC50 compared to ceftiofur, MAb Cef-116 (in words): ciELISA cross-reactivity; for fold reduction of binding: MAb Cef-116, printed "as compared to MAb Cef-68"
Protocol: as §1, §2, §3

| SMILES | IC50 (ppb) Values for Antibodies, Cef-68 [1] [ppb] | binding with MAb Cef-68 (in words) [1] | IC50 (ppb) Values for Antibodies, Cef-116 [2] [ppb] | fold reduction of binding [2] [fold] | IC50 compared to ceftiofur, MAb Cef-116 (in words) [2] |
| --- | --- | --- | --- | --- | --- |
| CO/N=C(\C(=O)N[C@@H]1C(=O)N2C(C(=O)O)=C(CSC(=O)c3ccco3)CS[C@H]12)c1csc(N)n1 [Ceftiofur, ceftiofur] | 32.33 ± 0.58 |  | 0.33 ± 0.05 |  |  |
| CO/N=C(\C(=O)N[C@@H]1C(=O)N2C(C(=O)O)=C(COC(N)=O)CS[C@H]12)c1ccco1 [Cefuroxime, cefuroxime] |  |  | 406.67 ± 130.13 | 100 |  |

Second part, led by results:

| IC50 (ppb) Values for Antibodies, Cef-68 [1] [ppb] | binding with MAb Cef-68 (in words) [1] | IC50 (ppb) Values for Antibodies, Cef-116 [2] [ppb] | fold reduction of binding [2] [fold] | SMILES | IC50 compared to ceftiofur, MAb Cef-116 (in words) [2] |
| --- | --- | --- | --- | --- | --- |
| 79.67 ± 0.58 | observed to bind | 0.48 ± 0.05 |  | CO/N=C(\C(=O)N[C@@H]1C(=O)N2C(C(=O)O)=C(COC(C)=O)CS[C@H]12)c1csc(N)n1 [Cefotaxime, cefotaxime] | IC50 values comparable to those observed with ceftiofur |
| 200.00 ± 10.00 | observed to bind | 3.57 ± 0.75 | 10 | CO/N=C(\C(=O)N[C@@H]1C(=O)N2C(C(=O)O)=C(Cn3nnc(C)n3)CS[C@H]12)c1csc(N)n1 [Cefteram, cefteram] |  |
| 38.67 ± 8.62 | observed to bind | 0.33 ± 0.05 |  | CO/N=C(\C(=O)N[C@@H]1C(=O)N2C(C(=O)O)=C(CSc3nc(=O)c(=O)[nH]n3C)CS[C@H]12)c1csc(N)n1 [Ceftriaxone, ceftriaxone] | IC50 values comparable to those observed with ceftiofur |
